Data as given in the supplement of paper PMC10307832.

Tests used:
Experiment in all cases: relative viability (nuclei count vs DMSO), 5 days (fraction); higher = more cells survive
SK-LU-1 = system: SK-LU-1
How it was run: (§1)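 For relative viability, nuclei counts in treated wells were divided by those in vehicle wells. Lung cancer cell lines had been pin-tool dosed in 1536-well plates the day after seeding and cultured for 5 days, then fixed and stained in one step (final 0.05% Triton X-100, 1% formaldehyde, 1 ug/ml Hoechst) and imaged at 4×. Doses were one drug alone or a fixed anchor-drug dose plus five library-drug doses (not always all listed) in √10 steps, and values are duplicate-plate medians.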

NCI-H2228 = system: NCI-H2228
How it was run: as §1

LOU-NH91 = system: LOU-NH91
How it was run: as §1

NCI-H661 = system: NCI-H661
How it was run: as §1

NCI-H2170 = system: NCI-H2170
How it was run: as §1

LC-2-ad = system: LC-2-ad
How it was run: as §1

NCI-H596 = system: NCI-H596
How it was run: as §1

SK-MES-1 = system: SK-MES-1
How it was run: as §1

NCI-H1395 = system: NCI-H1395
How it was run: as §1

BEN = system: BEN
How it was run: as §1

NCI-H2087 = system: NCI-H2087
How it was run: as §1

NCI-H1734 = system: NCI-H1734
How it was run: as §1

NCI-H2405 = system: NCI-H2405
How it was run: as §1

NCI-H2342 = system: NCI-H2342
How it was run: as §1

NCI-H647 = system: NCI-H647
How it was run: as §1

HARA = system: HARA
How it was run: as §1

EKVX = system: EKVX
How it was run: as §1

HCC-827 = system: HCC-827
How it was run: as §1

NCI-H1355 = system: NCI-H1355
How it was run: as §1

HCC-366 = system: HCC-366
How it was run: as §1

NCI-H2009 = system: NCI-H2009
How it was run: as §1

NCI-H1437 = system: NCI-H1437
How it was run: as §1

NC(=O)Nc1cc(-c2cccc(F)c2)sc1C(=O)N[C@H]1CCCNC1 [AZD7762] + O=C(CCCCCCC(=O)Nc1ccccc1)NO [Vorinostat] (partner 1 µM)
relative viability (SK-LU-1; first compound 0.01 µM): 0.909 | relative viability (SK-LU-1; first compound 0.03162 µM): 0.663 | relative viability (SK-LU-1; first compound 0.1 µM): 0.563 | relative viability (SK-LU-1; first compound 0.3162 µM): 0.273 | relative viability (SK-LU-1; first compound 1 µM): 0.276 | relative viability (NCI-H2228; first compound 0.01 µM): 1.06 | relative viability (NCI-H2228; first compound 0.03162 µM): 0.443 | relative viability (NCI-H2228; first compound 0.1 µM): 0.59 | relative viability (NCI-H2228; first compound 0.3162 µM): 0.383 | relative viability (NCI-H2228; first compound 1 µM): 0.299 | relative viability (LOU-NH91; first compound 0.01 µM): 0.87 | relative viability (LOU-NH91; first compound 0.03162 µM): 0.971 | relative viability (LOU-NH91; first compound 0.1 µM): 0.917 | relative viability (LOU-NH91; first compound 0.3162 µM): 0.741 | relative viability (LOU-NH91; first compound 1 µM): 0.646 | relative viability (NCI-H661; first compound 0.01 µM): 0.929 | relative viability (NCI-H661; first compound 0.03162 µM): 0.867 | relative viability (NCI-H661; first compound 0.1 µM): 0.98 | relative viability (NCI-H661; first compound 0.3162 µM): 0.604 | relative viability (NCI-H661; first compound 1 µM): 0.341 | relative viability (NCI-H2170; first compound 0.01 µM): 0.81 | relative viability (NCI-H2170; first compound 0.03162 µM): 0.834 | relative viability (NCI-H2170; first compound 0.1 µM): 0.766 | relative viability (NCI-H2170; first compound 0.3162 µM): 0.772 | relative viability (NCI-H2170; first compound 1 µM): 0.824 | relative viability (LC-2-ad; first compound 0.01 µM): 0.724 | relative viability (LC-2-ad; first compound 0.03162 µM): 0.755 | relative viability (LC-2-ad; first compound 0.1 µM): 0.749 | relative viability (LC-2-ad; first compound 0.3162 µM): 0.647 | relative viability (LC-2-ad; first compound 1 µM): 0.448 | relative viability (NCI-H596; first compound 0.01 µM): 0.691 | relative viability (NCI-H596; first compound 0.03162 µM): 0.803 | relative viability (NCI-H596; first compound 0.1 µM): 0.716 | relative viability (NCI-H596; first compound 0.3162 µM): 0.593 | relative viability (NCI-H596; first compound 1 µM): 0.594 | relative viability (SK-MES-1; first compound 0.01 µM): 1.12 | relative viability (SK-MES-1; first compound 0.03162 µM): 1.01 | relative viability (SK-MES-1; first compound 0.1 µM): 0.841 | relative viability (SK-MES-1; first compound 0.3162 µM): 0.45 | relative viability (SK-MES-1; first compound 1 µM): 0.192 | relative viability (NCI-H1395; first compound 0.01 µM): 0.721 | relative viability (NCI-H1395; first compound 0.03162 µM): 0.84 | relative viability (NCI-H1395; first compound 0.1 µM): 0.684 | relative viability (NCI-H1395; first compound 0.3162 µM): 0.32 | relative viability (NCI-H1395; first compound 1 µM): 0.336 | relative viability (BEN; first compound 0.01 µM): 0.639 | relative viability (BEN; first compound 0.03162 µM): 0.558 | relative viability (BEN; first compound 0.1 µM): 0.633 | relative viability (BEN; first compound 0.3162 µM): 0.619 | relative viability (BEN; first compound 1 µM): 0.543 | relative viability (NCI-H2087; first compound 0.01 µM): 0.891 | relative viability (NCI-H2087; first compound 0.03162 µM): 0.874 | relative viability (NCI-H2087; first compound 0.1 µM): 0.841 | relative viability (NCI-H2087; first compound 0.3162 µM): 0.976 | relative viability (NCI-H2087; first compound 1 µM): 0.791 | relative viability (NCI-H1734; first compound 0.01 µM): 0.772 | relative viability (NCI-H1734; first compound 0.03162 µM): 0.723 | relative viability (NCI-H1734; first compound 0.1 µM): 0.738 | relative viability (NCI-H1734; first compound 0.3162 µM): 0.415 | relative viability (NCI-H1734; first compound 1 µM): 0.251 | relative viability (NCI-H2405; first compound 0.01 µM): 1.08 | relative viability (NCI-H2405; first compound 0.03162 µM): 1.08 | relative viability (NCI-H2405; first compound 0.1 µM): 0.976 | relative viability (NCI-H2405; first compound 0.3162 µM): 0.756 | relative viability (NCI-H2405; first compound 1 µM): 0.521 | relative viability (NCI-H2342; first compound 0.01 µM): 0.715 | relative viability (NCI-H2342; first compound 0.03162 µM): 0.85 | relative viability (NCI-H2342; first compound 0.1 µM): 0.722 | relative viability (NCI-H2342; first compound 0.3162 µM): 0.74 | relative viability (NCI-H2342; first compound 1 µM): 0.633 | relative viability (NCI-H647; first compound 0.01 µM): 0.637 | relative viability (NCI-H647; first compound 0.03162 µM): 0.554 | relative viability (NCI-H647; first compound 0.1 µM): 0.521 | relative viability (NCI-H647; first compound 0.3162 µM): 0.281 | relative viability (NCI-H647; first compound 1 µM): 0.108 | relative viability (HARA; first compound 0.01 µM): 0.454 | relative viability (HARA; first compound 0.03162 µM): 0.483 | relative viability (HARA; first compound 0.1 µM): 0.509 | relative viability (HARA; first compound 0.3162 µM): 0.503 | relative viability (HARA; first compound 1 µM): 0.451 | relative viability (EKVX; first compound 0.01 µM): 0.78 | relative viability (EKVX; first compound 0.03162 µM): 0.758 | relative viability (EKVX; first compound 0.1 µM): 0.707 | relative viability (EKVX; first compound 0.3162 µM): 0.794 | relative viability (EKVX; first compound 1 µM): 0.461 | relative viability (HCC-827; first compound 0.01 µM): 0.984 | relative viability (HCC-827; first compound 0.03162 µM): 0.947 | relative viability (HCC-827; first compound 0.1 µM): 0.846 | relative viability (HCC-827; first compound 0.3162 µM): 0.753 | relative viability (HCC-827; first compound 1 µM): 0.618 | relative viability (NCI-H1355; first compound 0.01 µM): 0.609 | relative viability (NCI-H1355; first compound 0.03162 µM): 0.629 | relative viability (NCI-H1355; first compound 0.1 µM): 0.649 | relative viability (NCI-H1355; first compound 0.3162 µM): 0.647 | relative viability (NCI-H1355; first compound 1 µM): 0.379 | relative viability (HCC-366; first compound 0.01 µM): 0.455 | relative viability (HCC-366; first compound 0.03162 µM): 0.301 | relative viability (HCC-366; first compound 0.1 µM): 0.39 | relative viability (HCC-366; first compound 0.3162 µM): 0.188 | relative viability (HCC-366; first compound 1 µM): 0.104 | relative viability (NCI-H2009; first compound 0.01 µM): 0.794 | relative viability (NCI-H2009; first compound 0.03162 µM): 0.733 | relative viability (NCI-H2009; first compound 0.1 µM): 0.693 | relative viability (NCI-H2009; first compound 0.3162 µM): 0.688 | relative viability (NCI-H2009; first compound 1 µM): 0.625 | relative viability (NCI-H1437; first compound 0.01 µM): 0.964 | relative viability (NCI-H1437; first compound 0.03162 µM): 0.85 | relative viability (NCI-H1437; first compound 0.1 µM): 0.88 | relative viability (NCI-H1437; first compound 0.3162 µM): 0.639 | relative viability (NCI-H1437; first compound 1 µM): 0.49
